Assays:
DENV2 NS2B–NS3 protease = target: T1, DENV2 NS2B–NS3 protease (Dengue virus type 2, UniProt P14340); test: In vitro DENV2 NS2B/NS3pro inhibition assay using a FRET substrate; type: biochemical; conditions: IC50 (µM), DENV protease inhibitory activity, 5 µM substrate, 10 nM NS2b-NS3pro, compounds at 1, 10 and 100 µM, 1 h at RT; compounds 3ao–3av
T1 construct: Activity of recombinant dengue 2 virus NS3 protease in the presence of a truncated NS2B co-factor; The N-terminal domain of NS3 contains a highly conserved protease-active core; made in house; host or cells: Escherichia coli BL21(DE3)
Experimental: To assess the anti-DENV NS2B–NS3 activity of the compounds, we expressed the DENV2 NS2B–NS3 protease in BL21DE3 cells and subsequently purified it using Ni-NTA affinity chromatography, as outlined in Materials and Methods ([39], [40]). The protease activity assay was performed using different concentrations (1, 2.5, 5, 10, 25, 50, 75, and 100 µM) of a fluorogenic substrate (Abs-Nle-Lys-Arg-Arg-Ser-3-(NO2)Tyr) at various time points (5, 15, 30, 45, and 60 min), as described previously ([39], [41]). […] Therefore, all subsequent assays were conducted with a 1 h incubation time.
The selected compounds were analyzed using in vitro protease assays performed in black 96-well plates. […] All assays were performed in triplicate. The release of free AMC was measured using a Varioskan LUX multimode microplate reader (Thermo Fisher Scientific) at excitation and emission wavelengths of 380 and 460 nm, respectively. Control fluorescence values obtained in the absence of inhibitors were considered 100%, and those obtained in the presence of inhibitors were calculated as the percentage of inhibition of the control using Microsoft Excel and plotted using Origin Pro 2023b. The background AMC in the absence of protease was subtracted before data analysis. Further, protease assay was done using different concentration of the compounds (1, 10, and 100 µM) to evaluate the IC50 for the in vitro assay. IC50 curves were fitted and determined by fitting the nonlinear equation in Origin2023b software. A similar approach was used to analyze the enzymatic kinetics of protease inhibition. The reaction progress was monitored by the release of free aminomethylcoumarin (AMC), as previously described. The substrate was incubated with or without the inhibitor in the aforementioned reaction buffer in the presence of varying concentrations of the substrate. The reactions were initiated by the addition of the NS2B–NS3 protease. Protease activity was monitored for 1 h based on the initial rate of increase in fluorescence intensity at 460 nm, with an excitation wavelength of 380 nm. The results were analyzed using Origin Pro 2023b and the Michaelis–Menten equation to obtain the apparent Michaelis–Menten constants and maximal velocities. All assays were performed in triplicate. For each tested compound, two different concentrations of the inhibitor (0, 10, and 25 µM) were used at various concentrations (0–250 μM) of the substrate. The mechanism of inhibition was determined by observing the deviations in the apparent Km and Vmax values.

[1] = MTT cytotoxicity assay in BHK-21 cells; type: cell-based, hamster; conditions: hamster
Experimental: (§1) First, cytotoxic impact of these compounds was evaluated using MTT assay. […] Subsequently, we evaluated the effectiveness of these compounds in inhibiting DENV2 replication. BHK-21 cells were infected with the virus in presence of increasing concentration of these compounds, and harvested at 24 hpi. The virus replication rate was assessed by quantifying the copy number of viral genomic RNA using quantitative real-time PCR (qRT-PCR).
(§2) The MTT assay was performed to determine cellular metabolic activity as an indicator of cell viability, proliferation, and cytotoxicity. Thus, to determine whether these compounds had any toxic effects on cellular viability, an MTT assay was performed following the protocol described previously by Mosmann (1983) ([55], [56]). Briefly, BHK-21 and SH-SHY5Y cells were seeded into 96-well plates at a density of 20,000 cells/well. Almost 16–18 h later, the cells were treated with different concentrations of the compounds (3au and 3aq) for 24 h at 37 °C in 5% CO2. Thereafter, the medium was aspirated, and 100 µL of MTT reagent (5 mg/mL, SRL) in PBS was added to the cells and incubated for 3 h at 37 °C. Formazan crystals were formed in each well and resuspended in 100 µL of dimethyl sulfoxide (DMSO) (Sigma, USA) at room temperature for 20 min to completely dissolve the crystals. The absorbance of the solution in a 96-well plate was measured at 595 nm using a microplate reader (Epoch 2; BioTek Instruments). Each experiment was performed in triplicate, and the percentage of cell viability was determined as the ratio of the absorbance values of the experimental samples to the control solvent (DMSO) on the same plate.

BHK-21 cells = test: MTT cytotoxicity assay in BHK-21 cells; type: cell-based, hamster; conditions: 24 h
Experimental: as §1, §2

[2] = MTT cytotoxicity assay in SH-SY5Y cells; type: cell-based; conditions: human
Experimental: We further studied the effect of the compounds on JEV replication in the human neuroblastoma SH-SY5Y cells, which represents a suitable model cell line for a neuropathic virus, like JEV. At first, the cytotoxicity was studied for both compounds in SH-SY5Y cells. […] Then, the SH-SY5Y cells were infected with the JEV virus in the absence or presence of 3aq or 3au (10 µM), and viral genomic RNA copies were quantified using qRT-PCR at 24, 48, and 72 hpi, as described previously.
as §2, with “Thereafter, the medium was aspirated, and 100 µL of MTT reagent (5 mg/mL, SRL) in PBS was added to the cells and incubated for 3 h at 37 °C. Formazan crystals were formed in each well and resuspended in 100 µL of dimethyl sulfoxide (DMSO) (Sigma, USA) at room temperature for 20 min to completely dissolve the crystals.” left out

DENV2 = DENV2 progeny virus titer in BHK-21 supernatant (TCID50 assay); type: cell-based; conditions: Dengue virus, DENV2, BHK-21, read-out: IC50 of viral titer reduction (called TCID50 in the source)
Experimental: To this end, we assessed the antiviral activity of shortlisted compounds by evaluating their ability to inhibit progeny virus production. BHK-21 cells were infected with DENV2 and JEV (MOI: 0.1) in the presence of different concentrations of 3aq or 3au or with DMSO, and viral titer was determined in the supernatants harvested at 18 hpi. Compound 3aq caused the maximum reduction of viral titer showing TCID50 of 5.18 ± 0.87 and 2.29 ± 0.50 µM against DENV2 and JEV, respectively (Fig. 8B and D).
During DENV2 and JEV infection, the viral supernatant was collected and used in the TCID50 assay to determine the viral titer. Then, 3 × 10^4 BHK-21 cells per well were seeded in a 96-well cell culture microtiter plate the day before titration. The virus stock was diluted with infection media (DMEM + 2% FBS) to attain virus dilutions of 1 × 10^−2 to 6.4 × 10^−7 in 12 parallels, with the last column of the 96-well plate serving as virus-free cell control. On the day of the assay, when the cell had reached 90%–95% confluency, the growth medium was aspirated using a multichannel pipette, and 100 µL of virus inoculum of different dilutions was transferred to each well, keeping the last well only in infection media without virus. The cells were then incubated at 37 °C in a humidified 5% CO2 chamber. […] TCID50 was calculated using the Spearman and Karber methods.

T1 sequence (P14340 1476-1653): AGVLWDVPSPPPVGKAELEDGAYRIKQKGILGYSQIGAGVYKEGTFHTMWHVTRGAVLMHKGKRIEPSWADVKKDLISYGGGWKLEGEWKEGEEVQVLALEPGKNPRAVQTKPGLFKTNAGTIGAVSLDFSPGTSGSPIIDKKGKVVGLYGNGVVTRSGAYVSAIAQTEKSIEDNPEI
T1 sequence (P14340 1398-1437): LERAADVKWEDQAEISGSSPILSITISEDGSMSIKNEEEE

Row | Compound | IC50 (DENV2 NS2B–NS3 protease) | CC50 at 24 h [1] | non-toxic concentration (BHK-21 cells) | CC50 at 24 h [2] | IC50 (DENV2)
1 | COc1ccc(-c2csc(N/N=C(\C)c3ccc(O)cc3)n2)cc1 [3aq] | 15.1 µM | 82 ± 2.38 µM | up to 25 µM | 58.3 ± 4.31 µM | 5.18 ± 0.87 µM
2 | COc1ccc(-c2csc(N/N=C(\C)c3cc(O)cc(O)c3)n2)cc1 [3au] | 20.8 µM | 76.6 ± 2.74 µM | up to 25 µM | 49.4 ± 3.65 µM | 7.58 ± 1.02 µM

Reference: PMC11963559, “Identification of novel thiazole derivatives as flaviviral protease inhibitors effective against Dengue (DENV2) and Japanese encephalitis viruses” (Antimicrobial Agents and Chemotherapy, 2025)
